Source: patent US7973069B2 (PTC Therapeutics, Inc., priority 2004, dated 2011)
Where “and” joins values, the source holds several entries; their conditions need not be identical. Equal values may be shown once.

The molecules below were run on HCV replicon.
Format: cell-based
`CCOc1ccc2c(c1)c(C#N)c(-c1ccc(NC(=O)OCC3(C)CC3)cc1)n2C1CCC1` [Compound 1294] gave an IC50 of less than 0.5 µM. For `CCOc1ccc2c(c1)c(C#N)c(-c1ccc(NC(=O)OC3CCCC3)cc1)n2C1CCC1` [Compound 1199], the IC50 was less than 0.5 µM. For `CCCS(=O)(=O)Nc1ccc(-c2c(C#N)c3ccc(OC(F)(F)F)cc3n2CC)cc1` [Compound 882], the IC50 was less than 0.5 µM. In the case of `CCCn1c(-c2ccc(NS(=O)(=O)C(C)C)cc2)c(C#N)c2cc(OC)ccc21` [Compound 997], the IC50 is reported as 0.5 to 2 µM. `CCCn1c(-c2cccc(NS(=O)(=O)CC)c2)c(C#N)c2cc(OCc3ccccc3)ccc21` [Compound 919] showed an IC50 of 0.5 to 2 µM. For `CCCOC(=O)Nc1ccc(-c2c(C#N)c3ccc(OCC)cc3n2CC)cc1` [Compound 949], the IC50 was 0.5 to 2 µM. Molecule `CCOc1ccc2c(C#N)c(-c3ccc(NC(=O)NC(C)C)cc3)n(C3CCCC3)c2c1` [Compound 1221] has an IC50 of less than 0.5 µM. With `CCOc1ccc2c(C#N)c(-c3ccc(NC(=O)OC(C)C)cc3)n(C3CCCC3)c2c1` [Compound 1129] the IC50 was less than 0.5 µM. For `CCCOC(=O)Nc1ccc(-c2c(C#N)c3ccc(OCC)cc3n2CC2CC2)cc1` [Compound 1149], the IC50 was less than 0.5 µM. In the case of `CCNC(=O)Nc1ccc(-c2c(C#N)c3ccc(OCC)cc3n2C2CCCC2)cc1` [Compound 1143], the IC50 is reported as less than 0.5 µM. With `CCn1c(-c2ccc(N3CCCS3(=O)=O)cc2)c(C#N)c2ccc(OCCn3cccn3)cc21` [Compound 908] the IC50 was 0.5 to 2 µM. In the case of `CC(C)OC(=O)Nc1ccc(-c2c(C#N)c3ccc(OCCN4CCSCC4)cc3n2C2CCC2)cc1` [Compound 1273], the IC50 is reported as 0.5 to 2 µM. With `CCCCNC(=O)Nc1ccc(-c2c(C#N)c3ccc(OC)cc3n2CC)cc1F` [Compound 910] the IC50 was 0.5 to 2 µM. Molecule `CCOc1ccc2c(C#N)c(-c3ccc(NC(=O)OCCF)cc3)n(C3CCC3)c2c1` [Compound 974] has an IC50 of less than 0.5 µM. `CC(C)n1c(-c2ccc(NC(=O)O[C@H](C)C3CC3)cc2)c(C#N)c2ccc(Oc3ncccn3)cc21` [Compound 2208] gave an IC50 of less than 0.5 µM. Molecule `CCn1c(-c2ccc(NC(=O)C3CC3)cc2)c(C#N)c2ccc(OCCN3CCN(C)CC3)cc21` [Compound 952] has an IC50 of 0.5 to 2 µM. Work on `CCOc1ccc2c(C#N)c(-c3ccc(NC(=O)OC(C)(C)C)cc3)n(C3CCC3)c2c1` [Compound 1072] yielded an IC50 of less than 0.5 µM. For `CCCOc1ccc2c(C#N)c(-c3ccc(NC(=O)NC4CCC4)cc3)n(C(C)C)c2c1` [Compound 1326], the IC50 was 0.5 to 2 µM. `CCn1c(-c2ccc(NC(=O)OCCF)cc2)c(C#N)c2ccc(OC(F)(F)F)cc21` [Compound 888] was tested, and the IC50 was 0.5 to 2 µM. With `CC(C)NC(=O)Nc1ccc(-c2c(C#N)c3ccc(OCCCN4CCOCC4)cc3n2C2CCC2)cc1` [Compound 1306] the IC50 was 0.5 to 2 µM. In the case of `CCCCn1c(-c2ccc(NC(=O)NCCc3ccccc3)cc2)c(C#N)c2ccc(OCC)cc21` [Compound 1019], the IC50 is reported as less than 0.5 µM. `CCn1c(-c2cccc(NC(=O)NCCCl)c2)c(C#N)c2ccc(OCCCN3CCOCC3)cc21` [Compound 1036] showed an IC50 of 0.5 to 2 µM. `CCOc1ccc2c(C#N)c(-c3ccc(NP(=O)(OC)OC)cc3)n(C3CCC3)c2c1` [Compound 937] showed an IC50 of less than 0.5 µM. For `CCC(C)OC(=O)Nc1ccc(-c2c(C#N)c3ccc(OC(F)F)cc3n2CC2CC2)cc1` (centres unmarked) [Compound 1268], the IC50 was 0.5 to 2 µM. With `CCn1c(-c2ccc(NC(=O)OCc3ccccc3)cc2)c(C#N)c2ccc(OCCF)cc21` [Compound 948] the IC50 was less than 0.5 µM. `CC(OC(=O)Nc1ccc(-c2c(C#N)c3ccc(OCCN(C)C)cc3n2C2CCC2)cc1)C1CC1` (centres unmarked) [Compound 1327] showed an IC50 of less than 0.5 µM. `CCOC(=O)Nc1ccc(-c2c(C#N)c3ccc(OC)cc3n2CC)cc1F` [Compound 876] showed an IC50 of 0.5 to 2 µM. Molecule `CCCn1c(-c2ccc(NS(=O)(=O)CCC)cc2)c(C#N)c2ccc(OCc3ccccc3)cc21` [Compound 923] has an IC50 of 0.5 to 2 µM. Molecule `CCOCCOC(=O)Nc1ccc(-c2c(C#N)c3ccc(OCC)cc3n2C2CCC2)cc1` [Compound 1250] has an IC50 of less than 0.5 µM. `CCn1c(-c2ccc(NP(=O)(OC)OC)cc2)c(C#N)c2ccc(OC)cc21` [Compound 944] showed an IC50 of 0.5 to 2 µM. For `CC(C)OC(=O)Nc1ccc(-c2c(C#N)c3ccc(OCCn4ccnc4)cc3n2C2CCC2)cc1` [Compound 1275], the IC50 was less than 0.5 µM. `CCCn1c(-c2ccc(NC(=O)NCCc3ccccc3)cc2)c(C#N)c2ccc(OCC)cc21` [Compound 1256] showed an IC50 of less than 0.5 µM. `N#Cc1c(-c2ccc(NC(=O)OC3CCCC3)cc2)n(C2CCC2)c2cc(OC(F)F)ccc12` [Compound 1186] gave an IC50 of 0.5 to 2 µM. `CCCn1c(-c2ccc(NS(=O)(=O)CC)cc2)c(C#N)c2cc(OC)ccc21` [Compound 996] was tested, and the IC50 was < 0.5 µM and 0.5 to 2 µM. Work on `CCCOc1ccc2c(C#N)c(-c3ccc(NC(=O)OCC4CC4)cc3)n(C(C)C)c2c1` [Compound 1241] yielded an IC50 of less than 0.5 µM. In the case of `CCCOc1ccc2c(C#N)c(-c3ccc(NC(=O)OCC(C)(C)C)cc3)n(C(C)C)c2c1` [Compound 1207], the IC50 is reported as less than 0.5 µM. `COc1ccc2c(C#N)c(-c3ccc(NS(=O)(=O)C4CC4)cc3)n(CC3CCCC3)c2c1` [Compound 890] was tested, and the IC50 was 0.5 to 2 µM. For `CCOc1ccc2c(c1)c(C#N)c(-c1ccc(NC(=O)NC(C)C)cc1)n2C1CCC1` [Compound 1224], the IC50 was 0.5 to 2 µM. Molecule `CCCn1c(-c2ccc(NC(=O)OCCF)cc2)c(C#N)c2ccc(OCC)cc21` [Compound 1064] has an IC50 of 0.5 to 2 µM. With `CCCCOC(=O)Nc1ccc(-c2c(C#N)c3cc(OCC)ccc3n2C2CCC2)cc1` [Compound 1197] the IC50 was 0.5 to 2 µM and < 0.5 µM. Work on `CCCN(c1ccc(-c2c(C#N)c3ccc(C(F)(F)F)cc3n2CC)cc1)S(=O)(=O)CC` [Compound 1007] yielded an IC50 of less than 0.5 µM. In the case of `CC(C)NC(=O)Nc1ccc(-c2c(C#N)c3ccc(OCCCN4CCN(C)CC4)cc3n2C2CCC2)cc1` [Compound 1307], the IC50 is reported as 0.5 to 2 µM. In the case of `CCOc1ccc2c(C#N)c(-c3ccc(NC(=O)OC(C)C)cc3)n(CC3CCC3)c2c1` [Compound 1169], the IC50 is reported as less than 0.5 µM. With `COc1ccc2c(C#N)c(-c3ccc(NS(=O)(=O)C(C)C)cc3)n(C3CCC3)c2c1` [Compound 1103] the IC50 was 0.5 to 2 µM. Molecule `CC(C)OC(=O)Nc1ccc(-c2c(C#N)c3ccc(Oc4ncccn4)cc3n2C2CCC2)cc1F` [Compound 2336] has an IC50 of less than 0.5 µM. `CCNC(=O)Nc1ccc(-c2c(C#N)c3ccc(OCC)cc3n2CC(C)C)cc1` [Compound 1060] gave an IC50 of 0.5 to 2 µM. Work on `C=CCNC(=O)Nc1ccc(-c2c(C#N)c3cc(OC)ccc3n2CC)cc1` [Compound 1013] yielded an IC50 of 0.5 to 2 µM. `CCn1c(-c2ccc(NC(=O)CCc3ccccc3)cc2)c(C#N)c2ccc(OC(F)(F)F)cc21` [Compound 916] was tested, and the IC50 was 0.5 to 2 µM. In the case of `COc1ccc2c(c1)c(C#N)c(-c1ccc(NC(=O)OC(C)C)cc1)n2C1CCC1` [Compound 1232], the IC50 is reported as < 0.5 µM and 0.5 to 2 µM. Molecule `CCOc1ccc2c(C#N)c(-c3ccc(NC(=O)NCCc4ccccc4)cc3)n(C(C)C)c2c1` [Compound 1102] has an IC50 of less than 0.5 µM. In the case of `CCOc1ccc2c(C#N)c(-c3ccc(NC(=O)OCCOC)cc3)n(C3CCC3)c2c1` [Compound 975], the IC50 is reported as 0.5 to 2 µM. For `CCOC(=O)Nc1ccc(-c2c(C#N)c3ccc(OCC)cc3n2CC2CC2)cc1` [Compound 1148], the IC50 was less than 0.5 µM. With `CCCCNC(=O)Nc1ccc(-c2c(C#N)c3cc(OC)ccc3n2CCC)cc1` [Compound 1008] the IC50 was 0.5 to 2 µM. For `CCOc1ccc2c(C#N)c(-c3ccc(NC(=O)OC(C)C)cc3)n(CC3CC3)c2c1` [Compound 1150], the IC50 was less than 0.5 µM. In the case of `CCOc1ccc2c(C#N)c(-c3ccc(NC(=O)NC(C)CC)cc3)n(C3CCC3)c2c1` (centres unmarked) [Compound 1159], the IC50 is reported as less than 0.5 µM. `CCOc1ccc2c(C#N)c(-c3ccc(NC(=O)OCCCN4CCOCC4)cc3)n(C3CCC3)c2c1` [Compound 1210] showed an IC50 of less than 0.5 µM.
